Reference: US5691135A, “Immunoglobulin superantigen binding to gp 120 from HIV” (The Regents of the University of California, priority 1994, dated 1997)
“And” between values parts separate entries of the source, which are not always exact repeats. Equal values may be shown once. “Also recorded” adds a separate entry of the source.

Columns and labels:
[1] = system: monoclonal IgM VIN binding to gp120; design: species or system human; details: gp120 elisa
[2] = system: monoclonal IgM RSJ binding to gp120; design: species or system human; details: gp120 elisa
[3] = system: VH3 IgM binding to gp120
[4] = system: polyclonal serum IgM binding to gp120 from HIV-1SF2; design: species or system human; details: for RESIDUAL BINDING TO gp120 (% OF CONTROL), 1.0 μM PEPTIDE / RESIDUAL BINDING TO gp120 (% OF CONTROL), 10.0 μM PEPTIDE: gp120 elisa
[5] = system: monoclonal IgM HEA binding to gp120; design: species or system human; details: for RESIDUAL BINDING TO gp120 (% OF CONTROL), 1.0 μM PEPTIDE / RESIDUAL BINDING TO gp120 (% OF CONTROL), 10.0 μM PEPTIDE: gp120 elisa
[6] = system: monoclonal IgM VNG binding to gp120; design: species or system human; details: for RESIDUAL BINDING TO gp120 (% OF CONTROL), 1.0 μM PEPTIDE / RESIDUAL BINDING TO gp120 (% OF CONTROL), 10.0 μM PEPTIDE: gp120 elisa
[7] = system: panel of Ig-SAg binding antibodies (polyclonal IgM plus four monoclonal IgM) binding to gp120; design: species or system human
[8] = system: CD19+ tonsil B-cells; assay type: cell-based, human
[9] = system: tonsil T-cells (CD19-, CD3+); assay type: cell-based, human

| Substance | RESIDUAL BINDING TO gp120 (% OF CONTROL), 1.0 μM PEPTIDE [1] | RESIDUAL BINDING TO gp120 (% OF CONTROL), 10.0 μM PEPTIDE [1] | RESIDUAL BINDING TO gp120 (% OF CONTROL), 1.0 μM PEPTIDE [2] | RESIDUAL BINDING TO gp120 (% OF CONTROL), 10.0 μM PEPTIDE [2] | RESIDUAL BINDING TO gp120 (% OF CONTROL), 1.0 μM PEPTIDE [4] | RESIDUAL BINDING TO gp120 (% OF CONTROL), 10.0 μM PEPTIDE [4] | RESIDUAL BINDING TO gp120 (% OF CONTROL), 1.0 μM PEPTIDE [5] | RESIDUAL BINDING TO gp120 (% OF CONTROL), 10.0 μM PEPTIDE [5] | RESIDUAL BINDING TO gp120 (% OF CONTROL), 1.0 μM PEPTIDE [6] | RESIDUAL BINDING TO gp120 (% OF CONTROL), 10.0 μM PEPTIDE [6] | also measured |
| --- | --- | --- | --- | --- | --- | --- | --- | --- | --- | --- | --- |
| GKAMYAPPIEGQIRCSSNIT [Peptide 2008, gp160 peptide 431-450, HIV-1 MN] | 108 ± 4.3 % OF CONTROL | 15.7 ± 1.7 % OF CONTROL |  |  |  |  |  |  |  |  |  |
| YTTKNIIGTIRQAHCNISRA [Peptide 1987, gp160 peptide 321-340, HIV-1 MN] |  |  | 56.8 ± 0.3 % OF CONTROL | 42.2 ± 3.4 % OF CONTROL |  |  |  |  |  |  |  |
| actin |  |  |  |  |  |  |  |  |  |  | inhibition of gp120 binding to VH3 IgM [3]: neither actin nor the 1925 peptide inhibited |
| KWNDTLRQIVSKLKEQFKNK [Peptide 1989, gp160 peptide 341-360, HIV-1 MN] | 96.6 ± 6.1 % OF CONTROL | 13.4 ± 1.8 % OF CONTROL |  |  | 88.5 ± 3.6 % OF CONTROL | 24.6 ± 6.6 % OF CONTROL | 98.3 ± 0.1 % OF CONTROL | 26.2 ± 0.8 % OF CONTROL |  |  |  |
| DTEVHNVWATQACVPTDPNP [Peptide 1925, gp160 peptide 61-81, HIV-1 MN] |  |  |  |  |  |  |  |  |  |  | inhibition of gp120 binding to VH3 IgM [3]: neither actin nor the 1925 peptide inhibited |
| CTRPNYNKRKRIHIGPGRAF [Peptide 1985, gp160 peptide 301-320, HIV-1 MN] |  |  |  |  |  |  |  |  | 27.4 ± 0.5 % OF CONTROL | 24.2 ± 0.1 % OF CONTROL | inhibition of polyclonal serum IgM binding to gp120 [4]: does not inhibit; binding of VNG to peptide [6]: bound |
| MRVKGIRRNYQHWWGWGTM [Peptide 1919, gp160 peptide, amino acids 1-20, HIV-1 MN] | 28.1 ± 5.0 % OF CONTROL | 14.8 ± 2.0 % OF CONTROL | 11.1 ± 1.5 % OF CONTROL | 1.3 ± 0.1 % OF CONTROL | 17.6 ± 0.2 % OF CONTROL |  | 56.1 ± 3.6 % OF CONTROL | 15.1 ± 2.1 % OF CONTROL | 46.4 ± 20.2 % OF CONTROL | 3.3 ± 1.7 % OF CONTROL | inhibition of IgM binding to gp120 by shared peptides [7]: abolished the binding of IgM to gp120; peptide binding across all Ig tested [7]: bound to all Ig tested; also recorded: bound to all of the monoclonal antibodies as well as to polyclonal serum IgM; inhibition of gp120 binding to VH3 IgM [3]: inhibited gp120 binding to VH3 IgM |
| TKAKRRVVQREKRAAIGALP [Peptide 2015, gp160 peptide 501-520, HIV-1 MN] | 23.7 ± 3.4 % OF CONTROL | 6.5 ± 2.0 % OF CONTROL |  |  | 44.5 ± 5.4 % OF CONTROL | 29.3 ± 5.1 % OF CONTROL |  |  | 83.0 ± 6.3 % OF CONTROL | 37.7 ± 2.0 % OF CONTROL |  |
| LKCNDKKFSGKGSCKNVSTV [Peptide 1959, gp160 peptide 231-250, HIV-1 MN] | 12.6 ± 1.0 % OF CONTROL | 8.0 ± 0.2 % OF CONTROL | 40.5 ± 8.2 % OF CONTROL | 17.2 ± 1.7 % OF CONTROL | 37.0 ± 4.4 % OF CONTROL | 16.8 ± 8.4 % OF CONTROL | 28.3 ± 3.7 % OF CONTROL | 8.4 ± 5.3 % OF CONTROL | 48.7 ± 0.9 % OF CONTROL | 13.7 ± 3.6 % OF CONTROL | peptide binding across all Ig tested [7]: bound to all Ig tested |
| RQAHCNISRAKWNDTLRQIV [Peptide 1988, gp160 peptide 331-350, HIV-1 MN] | 12.4 ± 0.6 % OF CONTROL | 12.2 ± 7.8 % OF CONTROL | 20.3 ± 1.5 % OF CONTROL | 13.5 ± 0.4 % OF CONTROL | 39.9 ± 3.6 % OF CONTROL | 23.7 ± 9.7 % OF CONTROL | 92.8 ± 0.4 % OF CONTROL | 40.8 ± 6.1 % OF CONTROL |  |  |  |
| gp120: recombinant gp120 from HIV-1SF2 expressed in CHO cells |  |  |  |  |  |  |  |  |  |  | fraction of B-cell population (CD19+) that bound gp120 [8]: 4% and 3-6%; fraction of T-cell population (CD19-) that bound gp120 [9]: 68% and 65% |
| thyroglobulin |  |  |  |  |  |  |  |  |  |  | inhibition of gp120 binding to VH3 IgM [3]: inhibited gp120 binding to VH3 IgM |
| CRIKQIIMWQKVGKAMYAPPISG [Peptide 1589, gp160 peptide 418-441, HIV-1 IIIB] |  |  |  |  |  |  |  |  |  |  | inhibition of HEA binding to gp120 [5]: inhibited the binding of HEA to gp120 |
| EGTIKGGEMKNCSFNITTSI [Peptide 1934, gp160 peptide 151-170, HIV-1 MN] |  |  | 13.9 ± 0.3 % OF CONTROL |  |  |  |  |  |  |  |  |
| KQIINMWQEVGKAMYAPPIE [Peptide 2007, gp160 peptide 421-440, HIV-1 MN] | 69.8 ± 4.2 % OF CONTROL | 21.2 ± 1.2 % OF CONTROL | 24.1 ± 0.1 % OF CONTROL | 3.1 ± 0.7 % OF CONTROL | 59.1 ± 0.8 % OF CONTROL | 19.8 ± 5.4 % OF CONTROL | 56.2 ± 4.7 % OF CONTROL | 10.3 ± 0.5 % OF CONTROL |  |  |  |
| KGSCKNVSTVQCTHGIRPVV [Peptide 1960, gp160 peptide 241-260, HIV-1 MN] | 6.2 ± 1.3 % OF CONTROL | 5.8 ± 1.3 % OF CONTROL | 10.2 ± 2.4 % OF CONTROL | 4.2 ± 5.0 % OF CONTROL | 19.2 ± 1.0 % OF CONTROL | 11.7 ± 2.3 % OF CONTROL | 11.3 ± 2.5 % OF CONTROL | 6.2 ± 3.0 % OF CONTROL | 58.1 ± 0 % OF CONTROL | 32.3 ± 7.1 % OF CONTROL | peptide binding across all Ig tested [7]: bound to all Ig tested |
